{
  "source": "patent US20240368123A1",
  "about": "“AROMATIC RING-CONTAINING BIOLOGICAL ANTAGONIST, AND PREPARATION METHOD THEREFOR AND USE THEREOF” (SHANGHAI HANSOH BIOMEDICAL CO., LTD., priority 2021, published 2024)",
  "key": {"[1]": {"assay": "Liver microsomal metabolism stability test, dog", "assay_type": "in vitro ADME", "details": "dog liver microsomes, 60 min", "protocol": "(§1) The purpose of this experiment was to detect the stability of the example compounds in liver microsomes of rats, dogs and humans.\n(§2) • Formulation of working solution of compounds: compound stock solution was added to phosphate buffer to a final concentration of 20 μM.\n(§3) Dilution was performed with 100 mM phosphate buffer to a final concentration of 0.625 mg/mL.\n(§4) NADPH (reduced nicotinamide adenine dinucleotide phosphate) and UDPGA (uridine diphosphate glucuronic acid) were weighed, 100 mM phosphate buffer was added, and the final concentration was 20 mM.\n(§5) 1 mg of Alamethicin was weighed, and 200 μL of DMSO was added to formulate a 5 mg/mL solution. Then dilution was performed with phosphate buffer to a final concentration of 50 μg/mL.\n(§6) Stop solution: the stop solution contains 100 ng/mL labetalol hydrochloride and 400 ng/mL tolbutamide and cold acetonitrile as internal standard.\n(§7) 400 μL of formulated liver microsomes, 25 μL of compound working solution and 25 μL of Alamethicin were added in sequence to the 96-well plate, and pre-incubated at 37° C. for 10 min. Then 50 μL of formulated NADPH/UDPGA was added to start the reaction and the mixture was incubated at 37° C. The total volume of the reaction system was 500 μL. The final contents of each component are as follows:\n(§8) • Instrument: Shimadzu LC-30 AD; • Chromatographic column: XBridge® C18 (50*4.6 mm, 5 μm particle size); • Mobile phase: A: 0.1% formic acid solution, B: methanol Wash gradient: 0.2-1.6 min 5% A to 95% A, 3.0-3.1 min 95% A to 5% A Run time: 4.0 min.\n(§9) • Instrument: API5500 liquid chromatography mass spectrometer, AB Sciex; • Ion source: electrospray ionization source (ESI); • Drying gas: N2, temperature 500° C.; • Electrospray voltage: 5000 V; • Detection mode: positive ion detection; • Scanning mode: reaction monitoring (MRM) mode."}, "[2]": {"assay": "Liver microsomal metabolism stability test, rat", "assay_type": "in vitro ADME", "details": "rat liver microsomes, 60 min", "protocol": "as §1, §2, §3, §4, §5, §6, §7, §8, §9"}, "[3]": {"assay": "Liver microsomal metabolism stability test, human", "assay_type": "in vitro ADME", "details": "human liver microsomes, 60 min", "protocol": "as §1, §2, §3, §4, §5, §6, §7, §8, §9"}, "[4]": {"system": "spontaneously hypertensive rat (SHR) model", "assay": "Pharmacodynamic evaluation on blood pressure in spontaneously hypertensive rats", "assay_type": "in vivo", "details": "P.O, 30 mpk, 1-8 h after administration, P<0.05", "excerpt": "This experiment used a spontaneously hypertensive rat (SHR) model to evaluate the pharmacodynamic effect of the test compounds on the blood pressure and heart rate of the model.\nKent Scientific CODA non-invasive blood pressure system.\nSpontaneously hypertensive rats (SHR) were provided by Beijing Vital River Laboratory Animal Technology Co., Ltd., male, 150-200 g, 13-15 weeks old, 50 rats.\nAfter animals arrived at the experimental facility, the animals were adapted to the animal facility for 5-7 days. 4.2 After the adaptation period, the animals were adapted to the tail oversleeve restrain for 3 days, and the tail oversleeve restrain was performed twice a day. After the last restrain adaptation, the basal blood pressure was measured, and the animals were randomly divided into groups according to the basal blood pressure. There was no significant difference between the average systolic blood pressure of animals in each group, and the number of animals in each group met the requirements of statistical testing and pharmacodynamic guidelines. 4.3 On the second day after grouping, the animals were administered according to experimental design and grouping (P.O, 5 mL/kg), and the systolic blood pressure (SBP), diastolic blood pressure (DBP), mean arterial pressure (MAP) and heart rate (HR) of the animals were measured before administration and at 1, 2, 4, 6, 8 and 24 h after administration using tail oversleeve method.\nStatistical differences between groups were analyzed by Two-way ANOVA test. Among them, P<0.05 indicated a significant difference, and P<0.01 indicated an extremely significant difference."}},
  "data": [
    {"smiles": "[2H]C([2H])(c1ccc(-c2ccccc2S(=O)(=O)Nc2noc(C)c2Cl)c(COCC)c1)N1C(=O)C2(CCCC2)N=C1CCCC", "note": "[Example 44, 4′-((2-butyl-4-oxo-1,3-diazaspiro[4.4]non-1-en-3-yl)methyl-d2)-N-(4-chloro-5-methylisoxazol-3-yl)-2′-(ethoxymethyl)-[1,1′-biphenyl]-2-sulfonamide]", "values": [
      {"measurement": "Remaining rate", "setting": "[1]", "value": 24.6, "unit": "%"},
      {"measurement": "Remaining rate", "setting": "[2]", "value": 29.4, "unit": "%"},
      {"measurement": "Remaining rate", "setting": "[3]", "value": 33.0, "unit": "%"},
      {"measurement": "blood pressure (systolic blood pressure, diastolic blood pressure, mean arterial pressure) compared with the vehicle group", "setting": "[4]", "value": "significantly reduced blood pressure"}
    ]},
    {"smiles": "CCCCC1=NC2(CCCC2)C(=O)N1Cc1ccc(-c2ccccc2S(=O)(=O)Nc2noc(C)c2Cl)c(COCC)c1", "note": "[Example 45, 2-[4-[(2-butyl-4-oxo-1,3-diazaspiro[4.4]non-1-en-3-yl)methyl]-2-(ethoxymethyl)phenyl]-N-(4-chloro-5-methyl-isoxazol-3-yl)benzsulfamide]", "values": [
      {"measurement": "Remaining rate", "setting": "[1]", "value": 23.6, "unit": "%"},
      {"measurement": "Remaining rate", "setting": "[2]", "value": 23.3, "unit": "%"},
      {"measurement": "Remaining rate", "setting": "[3]", "value": 32.0, "unit": "%"},
      {"measurement": "blood pressure (systolic blood pressure, diastolic blood pressure, mean arterial pressure) compared with the vehicle group", "setting": "[4]", "value": "significantly reduced blood pressure"}
    ]}
  ]
}
